Measured values: patent US8211662B2, “Nitroreductase enzymatic substrates” (Biomerieux, priority 2007, dated 2012)

Legend:
[1] = tested on: Acinetobacter baumanii ATCC 19606; test: Nitroreductase detection on Columbia agar, colonies read under UV; format: cell-based; set-up: key to Intensity of fluorescence, Acinetobacter baumanii ATCC 19606 / Intensity of the fluorescence, Acinetobacter baumanii ATCC 19606: − = no fluorescence detected; +/− = weak fluorescence; + = medium fluorescence; ++ = strong fluorescence; conditions: for Intensity of fluorescence, Acinetobacter baumanii ATCC 19606: 100 mg/l in Columbia agar, 24 h 37° C., UV 360-365 nm; for Distinguishing Pseudomonas aeruginosa from Acinetobacter baumanii: table 2
Description: (§1) A mass of 40 mg of each substrate was dissolved in 4 ml of dimethylformamide (DMF). This solution was entirely taken up in 400 ml of Columbia agar autoclaved beforehand and kept molten at 50° C. The final concentration for each substrate was 100 mg/l.
(§2) Each of the media was distributed into Petri dishes 90 mm in diameter, in a proportion of 20 ml per dish.
(§3) 18 microorganism strains derived from collections and belonging to various species of bacteria and of yeasts were inoculated onto these media by semi-quantitative isolation of 10 μl of a suspension at 0.5 McFarland diluted to 1/20. The media were incubated for 24 hours at 37° C., then the colonies formed were examined visually under UV illumination at 360-365 nm.

Staph spp 12 strains = test: Detection of various strains of S. aureus in the presence of substrates; format: cell-based
MRSA NCTC 11939 = test: Nitroreductase detection on Columbia agar, colonies read under UV; format: cell-based, Staphylococcus aureus; set-up: key: − = no fluorescence detected; +/− = weak fluorescence; + = medium fluorescence; ++ = strong fluorescence; conditions: 100 mg/l in Columbia agar, 24 h 37° C., UV 360-365 nm
Description: as §1, §2, §3

[2] = tested on: S. aureus (including MRSA) 10 strains; test: Detection of various strains of S. aureus in the presence of substrates; format: cell-based, Staphylococcus aureus; conditions: for No. of strains detected, S. aureus (including MRSA): 10 strains
Enterococcus 6 strains = test: as above; format: cell-based
[3] = tested on: Enterococcus faecalis NCTC 775; test: Nitroreductase detection on Columbia agar, colonies read under UV; format: cell-based; set-up: key: − = no fluorescence detected; +/− = weak fluorescence; + = medium fluorescence; ++ = strong fluorescence; conditions: 100 mg/l in Columbia agar, 24 h 37° C., UV 360-365 nm
Description: as §1, §2, §3

[4] = tested on: Candida albicans ATCC 90028; test: as above; format: cell-based; set-up: key: − = no fluorescence detected; +/− = weak fluorescence; + = medium fluorescence; ++ = strong fluorescence; conditions: 100 mg/l in Columbia agar, 24 h 37° C., UV 360-365 nm
Description: as §1, §2, §3

[5] = tested on: Serratia marcescens NCTC 10211; test: as above; format: cell-based; set-up: key: − = no fluorescence detected; +/− = weak fluorescence; + = medium fluorescence; ++ = strong fluorescence; conditions: 100 mg/l in Columbia agar, 24 h 37° C., UV 360-365 nm
Description: as §1, §2, §3

[6] = tested on: Staphylococcus aureus NCTC 6571; test: as above; format: cell-based; set-up: key: − = no fluorescence detected; +/− = weak fluorescence; + = medium fluorescence; ++ = strong fluorescence; conditions: 100 mg/l in Columbia agar, 24 h 37° C., UV 360-365 nm
Description: as §1, §2, §3

[7] = tested on: Enterobacter cloacae NCTC 11936; test: as above; format: cell-based; set-up: key: − = no fluorescence detected; +/− = weak fluorescence; + = medium fluorescence; ++ = strong fluorescence; conditions: 100 mg/l in Columbia agar, 24 h 37° C., UV 360-365 nm
Description: as §1, §2, §3

[8] = tested on: Yersinia enterocolitica NCTC 11176; test: as above; format: cell-based; set-up: key: − = no fluorescence detected; +/− = weak fluorescence; + = medium fluorescence; ++ = strong fluorescence; conditions: 100 mg/l in Columbia agar, 24 h 37° C., UV 360-365 nm
Description: as §1, §2, §3

[9] = tested on: Pseudomonas aeruginosa NCTC 10662; test: as above; format: cell-based; set-up: key: − = no fluorescence detected; +/− = weak fluorescence; + = medium fluorescence; ++ = strong fluorescence; conditions: 100 mg/l in Columbia agar, 24 h 37° C., UV 360-365 nm
Description: as §1, §2, §3

[10] = tested on: Staphylococcus epidermidis NCTC 11047; test: as above; format: cell-based; set-up: key: − = no fluorescence detected; +/− = weak fluorescence; + = medium fluorescence; ++ = strong fluorescence; conditions: 100 mg/l in Columbia agar, 24 h 37° C., UV 360-365 nm
Description: as §1, §2, §3

[11] = tested on: Streptococcus pyogenes NCTC 8306; test: as above; format: cell-based; set-up: key: − = no fluorescence detected; +/− = weak fluorescence; + = medium fluorescence; ++ = strong fluorescence; conditions: 100 mg/l in Columbia agar, 24 h 37° C., UV 360-365 nm
Description: as §1, §2, §3

[12] = tested on: Bacillus subtilis NCTC 9372; test: as above; format: cell-based; set-up: key: − = no fluorescence detected; +/− = weak fluorescence; + = medium fluorescence; ++ = strong fluorescence; conditions: 100 mg/l in Columbia agar, 24 h 37° C., UV 360-365 nm
Description: as §1, §2, §3

[13] = tested on: Listeria monocytogenes NCTC 11994; test: as above; format: cell-based; set-up: key: − = no fluorescence detected; +/− = weak fluorescence; + = medium fluorescence; ++ = strong fluorescence; conditions: 100 mg/l in Columbia agar, 24 h 37° C., UV 360-365 nm
Description: as §1, §2, §3

[14] = tested on: Escherichia coli NCTC 10418; test: as above; format: cell-based; set-up: key: − = no fluorescence detected; +/− = weak fluorescence; + = medium fluorescence; ++ = strong fluorescence; conditions: 100 mg/l in Columbia agar, 24 h 37° C., UV 360-365 nm
Description: as §1, §2, §3

[15] = tested on: Candida glabrata NCPF 3943; test: as above; format: cell-based; set-up: key to Intensity of fluorescence, Candida glabrata NCPF3943 / F: fluorescence (intensity), Candida glabrata NCPF 3943 / Intensity of the fluorescence, Candida glabrata NCPF 3943: − = no fluorescence detected; +/− = weak fluorescence; + = medium fluorescence; ++ = strong fluorescence; conditions: 100 mg/l in Columbia agar, 24 h 37° C., UV 360-365 nm
Description: as §1, §2, §3

[16] = tested on: Morganella morganii 462403 (wild); test: as above; format: cell-based; set-up: key to Intensity of fluorescence, Morganella morganii 462403 / F: fluorescence (intensity), Morganella morganii 462403 (wild) / Intensity of the fluorescence, Morganella morganii 462403 (wild): − = no fluorescence detected; +/− = weak fluorescence; + = medium fluorescence; ++ = strong fluorescence; conditions: for Intensity of fluorescence, Morganella morganii 462403: 100 mg/l in Columbia agar, 24 h 37° C., UV 360-365 nm
Description: as §1, §2, §3

S. epidermidis 2 strains = test: Detection of various strains of S. aureus in the presence of substrates; format: cell-based
Description: as §1, §2
18 microorganism strains derived from collections and belonging to various species of bacteria and of yeasts were inoculated onto these media by semi-quantitative isolation of 10 μl of a suspension at 0.5 McFarland diluted to 1/20. […]

[17] = tested on: Salmonella typhimurium NCTC 74; test: Nitroreductase detection on Columbia agar, colonies read under UV; format: cell-based; set-up: key to Intensity of fluorescence, Salmonella typhimurium NCTC 74 / F: fluorescence (intensity), Salmonella typhimurium NCTC 74 / Intensity of the fluorescence, Salmonella typhimurium NCTC 74: − = no fluorescence detected; +/− = weak fluorescence; + = medium fluorescence; ++ = strong fluorescence; conditions: for Intensity of fluorescence, Salmonella typhimurium NCTC 74: 100 mg/l in Columbia agar, 24 h 37° C., UV 360-365 nm; for Salmonella typhimurium result with the substrate: table 2
Description: as §1, §2, §3

Row | Intensity of fluorescence, Acinetobacter baumanii ATCC 19606 [1] | Intensity of fluorescence, Enterococcus faecalis NCTC 775 [3] | Intensity of fluorescence, Serratia marcescens NCTC 10211 [5] | Intensity of fluorescence, Enterobacter cloacae NCTC 11936 [7] | Intensity of fluorescence, Pseudomonas aeruginosa NCTC 10662 [9] | Intensity of fluorescence, Streptococcus pyogenes NCTC 8306 [11] | Intensity of fluorescence, Bacillus subtilis NCTC 9372 [12] | Intensity of fluorescence, Listeria monocytogenes NCTC 11994 [13] | Intensity of fluorescence, Morganella morganii 462403 [16] | Intensity of fluorescence, Salmonella typhimurium NCTC 74 [17] | Salmonella typhimurium result with the substrate [17] | Structure (SMILES) | No. of strains detected, Staph spp (Staph spp 12 strains; 24 h) | No. of strains detected, Staph spp (Staph spp 12 strains; 48 h) | Intensity of fluorescence, Staphylococcus aureus NCTC 11939 (MRSA NCTC 11939) | Intensity of fluorescence, Candida albicans ATCC 90028 [4] | Intensity of fluorescence, Staphylococcus aureus NCTC 6571 [6] | Intensity of fluorescence, Yersinia enterocolitica NCTC 11176 [8] | Intensity of fluorescence, Staphylococcus epidermidis NCTC 11047 [10] | Intensity of fluorescence, Escherichia coli NCTC 10418 [14] | Intensity of fluorescence, Candida glabrata NCPF3943 [15] | further results
1 | +/− | − | + | + | − | − | − | − | +/− | − | negative | O=[N+]([O-])c1ccccc1-c1nc2cc(Cl)ccc2o1 [Substrate 2] | 12 | 12 | + | − | + | +/− | − | +^1 | − | Distinguishing Pseudomonas aeruginosa from Acinetobacter baumanii [1]: make it possible to distinguish Pseudomonas aeruginosa from Acinetobacter baumanii; Distinguishing or identifying Staphylococcus aureus strains, in particular MRSA, from most of the other Gram-positive bacterial strains [2]: make it possible to distinguish or identify the Staphylococcus aureus strains; No. of strains detected, S. aureus (including MRSA) ([2]; 24 h): 10; No. of strains detected, S. aureus (including MRSA) ([2]; 48 h): 10; No. of strains detected, Enterococcus (Enterococcus 6 strains; 24 h): 0; No. of strains detected, Enterococcus (Enterococcus 6 strains; 48 h): 1; No. of strains detected, S. epidermidis (S. epidermidis 2 strains; 24 h): 0; No. of strains detected, S. epidermidis (S. epidermidis 2 strains; 48 h): 2
2 | − | − | + | + | − | − | − | − | +/− | − | negative | COc1cc(-c2nc3ccccc3o2)c([N+](=O)[O-])cc1OC [Substrate 6] | 12 | 12 | + | − | + | − | − | + | − | Distinguishing or identifying Staphylococcus aureus strains, in particular MRSA, from most of the other Gram-positive bacterial strains [2]: make it possible to distinguish or identify the Staphylococcus aureus strains; No. of strains detected, S. aureus (including MRSA) ([2]; 24 h): 10; No. of strains detected, S. aureus (including MRSA) ([2]; 48 h): 10; No. of strains detected, Enterococcus (Enterococcus 6 strains; 24 h): 0; No. of strains detected, Enterococcus (Enterococcus 6 strains; 48 h): 1; No. of strains detected, S. epidermidis (S. epidermidis 2 strains; 24 h): 0; No. of strains detected, S. epidermidis (S. epidermidis 2 strains; 48 h): 2
3 | + | − | ++ | ++ | − | − | − | − | ++ | ++ | strongly positive | O=[N+]([O-])c1ccc(F)cc1-c1nc2ccccc2o1 [Substrate 7] | 12 | 12 | ++ | − | ++ | − | − | ++ | − | Distinguishing Pseudomonas aeruginosa from Acinetobacter baumanii [1]: make it possible to distinguish Pseudomonas aeruginosa from Acinetobacter baumanii; Distinguishing or identifying Staphylococcus aureus strains, in particular MRSA, from most of the other Gram-positive bacterial strains [2]: make it possible to distinguish or identify the Staphylococcus aureus strains; No. of strains detected, S. aureus (including MRSA) ([2]; 24 h): 10; No. of strains detected, S. aureus (including MRSA) ([2]; 48 h): 10; No. of strains detected, Enterococcus (Enterococcus 6 strains; 24 h): 0; No. of strains detected, Enterococcus (Enterococcus 6 strains; 48 h): 1; No. of strains detected, S. epidermidis (S. epidermidis 2 strains; 24 h): 0; No. of strains detected, S. epidermidis (S. epidermidis 2 strains; 48 h): 2
4 | − | − | − | − | − | − | − | − | +/− | − | negative | O=[N+]([O-])c1ccccc1-c1nc2ccccc2n1CCc1ccccc1 [Substrate 12] |  |  | − | − | − | − | − | − | − | Specificity of the substrate ([16]; table 2): specific for Morganella morganii
